Target: T1, Probable G-protein coupled receptor 27 (Homo sapiens, UniProt Q9NS67)
Assay: Agonist activity at human GPR27 expressed in HEK293 cells assessed as induction of beta-arrestin recruitment pretreated with substrate for 45 mins followed by compound addition and measured for 40 mins by NanoLuc luciferase complementation assay
Type: functional, cell-based
Settings: not given

T1 sequence (Q9NS67 whole entry): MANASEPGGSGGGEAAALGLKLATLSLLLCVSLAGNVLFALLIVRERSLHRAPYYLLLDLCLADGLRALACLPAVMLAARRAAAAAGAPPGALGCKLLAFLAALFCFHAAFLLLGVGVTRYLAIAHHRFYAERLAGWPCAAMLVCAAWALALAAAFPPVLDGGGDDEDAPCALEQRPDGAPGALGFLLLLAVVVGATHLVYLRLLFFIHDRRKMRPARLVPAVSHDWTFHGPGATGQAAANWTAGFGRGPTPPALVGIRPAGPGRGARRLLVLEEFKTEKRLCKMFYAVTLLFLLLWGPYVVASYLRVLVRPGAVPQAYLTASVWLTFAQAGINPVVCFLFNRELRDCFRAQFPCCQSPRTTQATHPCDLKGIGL

EC50	Compound
1300 nM	O=C(Nc1ccc(S(=O)(=O)Nc2nccs2)cc1)c1ccc(Cl)cc1Cl
912 nM	O=C(Nc1ccc(S(=O)(=O)Nc2ccccc2)cc1)c1ccc(Cl)cc1Cl

Target: T1, Probable G-protein coupled receptor 27
Assay: Agonist activity at human GPR27 expressed in HEK293 cells co-expressing FnLArrb2.GPR27V2LFc assessed as induction of beta-arrestin recruitment incubated for 10 mins measured followed by addition of D-luciferin by firefly-luciferase complementation assay
Type: functional, cell-based
Settings: not given

Compound	EC50
O=C(Nc1ccc(S(=O)(=O)Nc2ccccc2)cc1)c1ccc2ccccc2c1	8510 nM
Cc1ccc(NS(=O)(=O)c2ccc(NC(=O)c3ccc(Cl)cc3Cl)cc2)cc1	> 100000 nM
O=S(=O)(Nc1ccccc1)c1ccc(NS(=O)(=O)c2ccc(Cl)cc2Cl)cc1	> 100000 nM
O=C(Nc1ccc(Cl)cc1Cl)c1ccc(S(=O)(=O)Nc2ccccc2)cc1	> 100000 nM
O=C(Nc1ccccc1)c1ccc(NC(=O)c2ccc(Cl)cc2Cl)cc1	> 10000 nM
COc1ccc(NS(=O)(=O)c2ccc(NC(=O)c3ccc(Cl)cc3Cl)cc2)cc1	> 100000 nM
O=C(Nc1ccc(S(=O)(=O)Nc2ncccn2)cc1)c1ccc(Cl)cc1Cl	> 100000 nM
O=C(Nc1ccc(S(=O)(=O)NCc2ccccc2)cc1)c1ccc(Cl)cc1Cl	> 100000 nM
O=C(Nc1ccc(S(=O)(=O)Nc2ccccc2)cc1)c1cc2ccccc2oc1=O	7760 nM
O=C(Nc1ccc(S(=O)(=O)Nc2ccc(Cl)cc2)cc1)c1ccc(Cl)cc1Cl	> 100000 nM
O=C(Cc1ccc(Cl)cc1Cl)Nc1ccc(S(=O)(=O)Nc2ccccc2)cc1	> 100000 nM
O=C(NS(=O)(=O)c1ccc(NC(=O)c2ccc(Cl)cc2Cl)cc1)c1ccccc1	> 100000 nM
O=C(Nc1cccc(S(=O)(=O)Nc2ccccc2)c1)c1ccc(Cl)cc1Cl	> 100000 nM

Results, then the compound that gave them:

EC50	Compound
5750 nM	O=C(Nc1ccc(S(=O)(=O)Nc2ccccc2)cc1)c1ncc(Cl)cc1Cl
5130 nM	O=C(Nc1ccc(S(=O)(=O)Nc2ccccc2)cc1)c1ccc(I)cc1F
3980 nM	O=C(Nc1ccc(S(=O)(=O)Nc2ccccc2)cc1)c1ccc(Cl)cc1F
3020 nM	O=C(Nc1ccc(S(=O)(=O)Nc2ccccn2)cc1)c1ccc(Cl)cc1Cl
2570 nM	CN(c1ccccc1)S(=O)(=O)c1ccc(NC(=O)c2ccc(Cl)cc2Cl)cc1
2290 nM	O=C(Nc1ccc(S(=O)(=O)Nc2ccccc2)cc1)c1ccc(Cl)nc1F
1260 nM	O=C(Nc1ccc(S(=O)(=O)Nc2ccccc2Cl)cc1)c1ccc(Cl)cc1Cl
1230 nM	Cc1ccccc1NS(=O)(=O)c1ccc(NC(=O)c2ccc(Cl)cc2Cl)cc1
1020 nM	COc1cc(Br)ccc1C(=O)Nc1ccc(S(=O)(=O)Nc2ccccc2)cc1
1020 nM	O=C(Nc1ccc(S(=O)(=O)Nc2ccccc2)cc1)c1ccc(Cl)cc1Br
912 nM	Cc1cc(Cl)ccc1C(=O)Nc1ccc(S(=O)(=O)Nc2ccccc2)cc1
851 nM	Cc1cc(Br)ccc1C(=O)Nc1ccc(S(=O)(=O)Nc2ccccc2)cc1
575 nM	O=C(Nc1ccc(S(=O)(=O)Nc2cccc(Cl)c2)cc1)c1ccc(Cl)cc1Cl
479 nM	O=C(Nc1ccc(S(=O)(=O)Nc2ccccc2)cc1)c1ccc(Br)cc1F
457 nM	O=C(Nc1ccc(S(=O)(=O)Nc2ccccc2)cc1)c1ccc(Cl)cc1Cl
363 nM	O=C(Nc1ccc(S(=O)(=O)Nc2ccccc2)cc1)c1ccc(C(F)(F)F)cc1F
229 nM	N#Cc1ccc(C(=O)Nc2ccc(S(=O)(=O)Nc3ccccc3)cc2)c(F)c1
141 nM	O=C(Nc1ccc(S(=O)(=O)Nc2ccccc2)cc1)c1cc(F)c(Cl)cc1F

Tested on: HEK293
Assay: Cytotoxicity against human HEK293 cells expressing FnLArrb2.GPR27V2LFc up to 33.3 uM incubated for 10 mins by MTT assay
Type: cell-based
Settings: hek293, 10 min

Compound	Activity
Cc1cc(Cl)ccc1C(=O)Nc1ccc(S(=O)(=O)Nc2ccccc2)cc1	Non-Toxic
O=C(Nc1ccc(S(=O)(=O)Nc2ccccc2)cc1)c1ccc(Cl)cc1Cl	Non-Toxic
O=C(Nc1ccc(S(=O)(=O)Nc2ccccc2)cc1)c1ccc(C(F)(F)F)cc1F	Non-Toxic
Cc1cc(Br)ccc1C(=O)Nc1ccc(S(=O)(=O)Nc2ccccc2)cc1	Non-Toxic

Source: ChEMBL document CHEMBL4828750, “Structure-activity relationships of agonists for the orphan G protein-coupled receptor GPR27” (Eur J Med Chem, 2021)
